In PubChem BioAssay (NCI):
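Cells were grown in 96-well plates and exposed to each compound for 48 hours at five concentrations; endpoints were interpolated linearly between bracketing concentrations, or set to the highest concentration if not reached. Abbreviation: GI50, concentration required for 50% inhibition of growth. Definition used: TGI = concentration required for complete inhibition of growth.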

How the values were obtained:
Assay in all cases: DTP human tumour cell line panel, 48 h
[1] = tested on: HCC-2998 colon
[2] = tested on: K-562 leukemia
[3] = tested on: MDA-MB-435
[4] = tested on: NCI-H226 lung
[5] = tested on: SK-MEL-5 melanoma
[6] = tested on: SR leukemia
[7] = tested on: TK-10 renal
[8] = tested on: KM12 colon
[9] = tested on: UACC-257 melanoma
[10] = tested on: CCRF-CEM leukemia

| SMILES | GI50 [1] | TGI [1] | GI50 [2] | TGI [2] | GI50 [3] | TGI [3] | GI50 [4] | TGI [4] | GI50 [5] | TGI [5] | GI50 [6] | TGI [6] | GI50 [7] | TGI [7] | TGI [8] | TGI [9] | TGI [10] | GI50 [10] | GI50 [8] | GI50 [9] |
| --- | --- | --- | --- | --- | --- | --- | --- | --- | --- | --- | --- | --- | --- | --- | --- | --- | --- | --- | --- | --- |
| CC(=O)Oc1ccccc1C(=O)N=C1[Se]CCCN1C(=O)c1ccccc1OC(C)=O | 3.42 µM | 15.6 µM | 3.32 µM | 12.6 µM | 1.98 µM | 4.76 µM | 2.01 µM | 4.74 µM | 2.01 µM | 4.13 µM | 2.44 µM | 9.17 µM | 1.87 µM | 3.81 µM |  |  |  |  |  |  |
| O=C(CCC(=O)Nc1cccc(Cl)c1)CC(=O)c1ccc(Cl)cc1 |  | > 100 µM |  | > 100 µM |  |  |  | > 100 µM |  |  |  | > 100 µM |  | > 100 µM | > 100 µM | > 100 µM |  |  |  |  |
| COc1cc2c(cc1OC)C13CCN4CC5=CCOC6CC(=O)N2C1C6C5CC43O (centres undefined) |  | > 100 µM |  | > 100 µM |  | > 100 µM |  | > 100 µM |  | > 100 µM |  |  |  | > 100 µM | > 100 µM | > 100 µM | > 100 µM |  |  |  |
| OCCCCC#Cc1ccccc1C#Cc1cccc(O)c1 | 19.1 µM | 35.5 µM | 19.2 µM | 40.4 µM | 16.1 µM | 32.8 µM | 22 µM | 47.3 µM | 17.8 µM | 32.7 µM |  |  | 19.2 µM | 38.2 µM | 41.3 µM | 33.1 µM | 48.6 µM | 18.8 µM | 17.1 µM | 18.1 µM |
| NC1CCCC[C@H]1N.N[C@@H]1CCCC[C@@H]1N.O=C(P(=O)([O-])[O-])P(=O)([O-])[O-].[Pt+4].[Pt+4] | > 100 µM | > 100 µM | 78.2 µM | > 100 µM |  |  | > 100 µM | > 100 µM | > 100 µM | > 100 µM |  |  | > 100 µM | > 100 µM | > 100 µM | > 100 µM | > 100 µM | 14.1 µM | > 100 µM | > 100 µM |
| C#CC(=O)Nc1cccc(Nc2nc3c(c(NCc4ccccc4)n2)CCCC3)c1 | 1.36 µM | 2.9 µM | 1.39 µM | 5.96 µM | 1.02 µM | 2.24 µM | 0.147 µM | 0.551 µM | 1.12 µM | 2.44 µM |  |  | 1.49 µM | 2.85 µM | 0.337 µM |  |  |  | 0.0225 µM |  |
| O=C(O)Cc1c(O)ccc2ccccc12 |  |  |  | > 100 µM |  | > 100 µM |  | > 100 µM |  | > 100 µM |  | > 100 µM |  | > 100 µM | > 100 µM | > 100 µM |  |  |  |  |
| CC(C)(C)N1CC2(CCCCC2)C1=O |  | > 100 µM |  | > 100 µM |  |  |  | > 100 µM |  | > 100 µM |  | > 100 µM |  | > 100 µM | > 100 µM | > 100 µM | > 100 µM |  |  |  |
| O=C(/C=C/c1ccccc1)/C=C/c1ccccc1 |  | > 100 µM |  | > 100 µM |  |  |  | > 100 µM |  | > 100 µM |  | 67.1 µM |  | > 100 µM | 38.2 µM | 87 µM | > 100 µM |  |  |  |
| COc1ccccc1/C=C/c1cnccn1 |  | > 10 µM |  | > 10 µM |  | > 10 µM |  | > 10 µM |  | > 10 µM |  |  |  | > 10 µM | > 10 µM | > 10 µM | > 10 µM |  |  |  |
| O=C(O)c1ccccc1-c1ccccc1C(=O)Nc1ccc2c(c1)Cc1cc(F)ccc1-2 |  | 33.8 µM |  |  |  | > 100 µM |  | > 100 µM |  | 47.2 µM |  | 48.9 µM |  | 90.9 µM | > 100 µM | 52.2 µM |  |  |  |  |
| O=C1c2ccn(CCCCNC(CO)(CO)CO)c2C(=O)c2c1c(O)c1ccccc1c2O | 0.17 µM | 0.515 µM |  |  | 0.992 µM | 2.42 µM | 2.81 µM | 9.35 µM | 5.21 µM | 53.1 µM | 2.42 µM | 5.76 µM | 0.517 µM | 1.72 µM | 1.76 µM | 24.6 µM |  |  | 0.592 µM | 7.71 µM |
| CC(C)c1ccccc1S(=O)c1ccccc1C(C)(C)O (centres undefined) |  |  |  | > 100 µM |  | > 100 µM |  | 41.8 µM |  | 81.5 µM |  | > 100 µM |  | > 100 µM | > 100 µM | > 100 µM | > 100 µM |  |  |  |
| Nc1c(C(=O)N/N=C/c2ccc(-c3ccc(Cl)cc3)o2)cnn1-c1ccnc2c(C(F)(F)F)cccc12 | > 100 µM | > 100 µM | 97.7 µM | > 100 µM | > 100 µM | > 100 µM | > 100 µM | > 100 µM | 49.1 µM | > 100 µM |  |  | > 100 µM | > 100 µM | > 100 µM |  |  |  | > 100 µM |  |
| O=C(CSc1nnc(-c2ccccc2NC(=O)C(F)(F)F)c(=O)[nH]1)NC(=O)Nc1ccccc1 |  | > 100 µM |  | > 100 µM |  |  |  | > 100 µM |  |  |  | > 100 µM |  | > 100 µM | > 100 µM |  | > 100 µM |  |  |  |
| NC(N)=N/N=C/c1cc(Cl)cc(Cl)c1O |  | 32 µM |  | > 100 µM |  | > 100 µM |  | > 100 µM |  | > 100 µM |  |  |  | > 100 µM | > 100 µM | > 100 µM | > 100 µM |  |  |  |
| CN(C)Cc1c[nH]c2c1C(=O)c1c(c(O)c3ccccc3c1O)C2=O | 6.61 µM | 21.9 µM | 2.24 µM | > 100 µM | 10.6 µM | 23 µM | 17 µM | 33.3 µM | 11.2 µM | 23.3 µM |  |  | 5.08 µM | 19.7 µM | 20.9 µM | 35.4 µM | 20.7 µM | 3.14 µM | 4.66 µM | 19.7 µM |
| CCCCCc1c(C)[nH]c(/C=C2\N=C(c3ccc[nH]3)C=C2CC)c1C | < 0.01 µM | 0.174 µM | < 0.01 µM | 0.176 µM | < 0.01 µM | 0.108 µM | < 0.0131 µM | 0.0452 µM | 0.0141 µM | 0.0278 µM |  |  | < 0.0155 µM | 0.166 µM | 0.191 µM | 0.167 µM |  |  | < 0.01 µM | 0.0286 µM |
| N#CC(/C(=N/NC(=O)C(=O)NN)C(=O)NC12CC3CC(CC(C3)C1)C2)c1ccccc1 (centres undefined) |  | > 100 µM |  | > 100 µM |  |  |  | > 100 µM |  | > 100 µM |  | > 100 µM |  | > 100 µM | > 100 µM | > 100 µM | > 100 µM |  |  |  |
